Earlier results on 9 compounds are cited in patent US20080089848A1, “INTRATHECAL INJECTION OF MICROBUBBLES” (priority 2006, published 2008).

In data set [1] the test system is middle cerebral artery occlusion.
Data set [2] relates to vasospasm.
The subject of data set [3] is glutamate-induced nitric oxide related neurotoxicity.
For data set [4] the following is noted: systemic administration, patients with intracranial hypertension.
Another data set deals with traumatic brain injury. The conditions noted are these: parental administration no more than 12 hours post-trauma.
The subject of data set [5] is primary murine cerebellar granule neurons.
Data set [6] deals with beta amyloid protein; dopaminergic neurons.
The test system of a further data set is vasospasm following SAH. The conditions noted are these: collagen devices, canines with autologous blood in the cisterna magna.
Data set [7] has as its system vasospasm. The source holds these as a separate data set.
The mark [8] stands for this setting: rat MCA occlusion, retrograde cerebral vein infusion.
The mark [9] stands for this setting: intracisternal injection, patients, Hamada 2003.

Regarding `CCNCc1cc(C(C)(C)C)c(O)c(C(C)(C)C)c1` [LY231617], in data set [1] (setting [8]), the BBB permeability result is given as “significant improvement” and the “local cerebral blood flow” value is “significant increase”. In addition, the ischemic damage result in [1] (seven hours post-MCA occlusion) is on record as “significantly reduced”.
As for `NCCN(CCN)/[N+]([O-])=N/O` [diethylene-triamine/NO], the vasospasm in rabbits result in the data set with vasospasm [2] (implants in the cisterna magna, Pradilla) was “prevented vasospasm”. Further, the “vasospasm in the rabbit basilar artery” value in the data set with vasospasm [2] (implants in the subarachnoid space, Gabikian) is “prevented vasospasm”.
For `CN(c1nc2ccccc2s1)C1CCN(C[C@H](O)COc2ccc(F)c(F)c2)CC1` [lubeluzole], the “glutamate-induced nitric oxide related neurotoxicity” value in data set [3] is listed as “inhibits”.
Turning to `O=S(=O)([O-])[O-].[Mg+2]` [magnesium sulfate], in data set [4], the “CSF ionized magnesium concentration” value is listed as “failed to increase” and the “increase of plasma magnesium levels” value is reported as greater than 50%.
For the compound `[Mg+2]` [magnesium], in the data set on traumatic brain injury, the brain magnesium homeostasis result is given as “restores brain magnesium homeostasis”; the “motor and cognitive outcome” value is “profoundly improves both motor and cognitive outcome”.
Consider TNF-α, for which the “concentration that markedly reduces the capacity of IGF-I to promote survival” value in data set [5] was no less than 10 pg/mL.
VEGF: the “neuroprotection in AD” value in data set [6] (Yang) is recorded as “provides neuroprotection in AD by binding to beta amyloid protein”. Also, in [6] (low dose, Yasuhara), the “neuroprotection in PD” value is “neuroprotective towards dopaminergic neurons”.
In the case of hirudin, the “reduction in the diameter of the basilar artery” value with vasospasm following SAH is recorded as “lowered the reduction in the diameter of the basilar artery”.
In the case of urokinase, the “safety and prevention of vasospasms” value with vasospasm [7] (human, in vivo) is “safe and reasonable means of preventing vasospasms”. Moreover, in the data set on vasospasm [7] (setting [9]), the “occurrence of symptomatic vasospasm” value is listed as “significantly reduced” and the “rate of permanent neurological deficits” value was “lower rate”.
